Test results reported in patent US20260373266A1, “PROTEIN DEGRADERS AND USES THEREOF” (KYMERA THERAPEUTICS, INC., priority 2022, published 2026).
Like-named read-outs stand apart in the source and are kept apart here.

Molecular target: T1, DCAF1 WD40 domain (residues 1077-1390) (Homo sapiens, UniProt Q9Y4B6)
T1 construct: DCAF1 WD40 domain (residues 1077-1390)
Experiment: DCAF1 binding assay by SPR (Biacore 8K+), DCAF1-3 KD
Settings: 25 °C

T1 sequence (Q9Y4B6 1077-1390): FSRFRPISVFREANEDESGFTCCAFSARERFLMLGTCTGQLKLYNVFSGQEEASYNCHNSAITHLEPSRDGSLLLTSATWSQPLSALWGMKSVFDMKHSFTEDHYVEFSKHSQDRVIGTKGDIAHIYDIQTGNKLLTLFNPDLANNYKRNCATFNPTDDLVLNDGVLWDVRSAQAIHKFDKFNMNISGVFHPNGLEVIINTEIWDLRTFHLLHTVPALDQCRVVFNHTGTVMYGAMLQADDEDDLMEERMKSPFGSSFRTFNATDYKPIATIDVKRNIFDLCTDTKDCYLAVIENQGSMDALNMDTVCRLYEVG

| Compound | Kd (read-out: DCAF1-3 SPR (KD)) | Kd (DCAF1-3 SPR (KD)) |
| --- | --- | --- |
| NC(=O)[C@@H]1C[C@H](Nc2cc(N3CCCCC3)ccn2)CN(c2cccc(F)c2)C1 [I-1031] | 10 to 100 µM |  |
| NC(=O)C[C@H](NC(=O)c1c[nH]c(Cc2ccccc2)c1-c1c(F)cccc1F)c1cccc(Cl)c1 [I-566] | < 10 µM |  |
| CS(=O)(=O)CCC(=O)N1CCC[C@@H](Nc2cc(N3CCOCC3)ccn2)C1 [I-767] | > 200 µM |  |
| NC(=O)C[C@H](NC(=O)c1n[nH]nc1-c1ccccc1F)c1cccc(Cl)c1 [I-200] | > 200 µM |  |
| Fc1cccc(N2CCC[C@H]3[C@@H]2CCCN3c2cc(N3CCCCC3)ccn2)c1 [I-720] | < 10 µM |  |
| c1ccc2cc(N3CCC[C@@H](Nc4cc(N5CCOCC5)ncn4)C3)ncc2c1 [I-398] | > 200 µM |  |
| Cc1sc2c(c1C)C(c1ccc(Cl)cc1)=N[C@@H](CC(=O)NCCOCCOCCOCCOCCOCCOCCn1cc(C(=O)N[C@@H](CC(N)=O)c3cccc(Cl)c3)c(-c3ccccc3F)n1)c1nnc(C)n1-2 [I-889] | > 200 µM |  |
| OC[C@H]1CC[C@H](Nc2cc(N3CCCCC3)ccn2)CC1 [I-847] | > 200 µM |  |
| O=C1C[C@@H]([C@H](NC(=O)c2c[nH]nc2-c2ccccc2F)c2cccc(Cl)c2)CN1 [I-223] | > 200 µM |  |
| NC(=O)C[C@H](NC(=O)c1cn[nH]c1-c1c(F)ccc(F)c1C(F)(F)F)c1cccc(Cl)c1 [I-793] | < 10 µM |  |
| C=CC(=O)NCCCC1CCN(c2ccnc(N3CC[C@@H]4[C@H]3CCCN4c3cccc(F)c3)c2)CC1 [I-705] | 100 to 200 µM |  |
| N#Cc1ccccc1N1CCC[C@@H](Nc2cc(N3CCOCC3)ccn2)C1 [I-770] | 10 to 100 µM |  |
| COCCn1ncc(C(=O)N[C@@H](CC(N)=O)c2cccc(Cl)c2)c1-c1ccccc1F [I-88] | > 200 µM |  |
| Fc1cccc(N2CCC[C@@H](Nc3cc(N4C[C@H]5C[C@@H]4CO5)ncn3)C2)c1 [I-310] | > 200 µM |  |
| Cn1cnc(C[C@H](O)C(=O)N[C@@H](CC(N)=O)c2cccc(Cl)c2)c1 [I-443] | > 200 µM |  |
| O=C(O)[C@@H]1[C@H](Nc2cc(N3CCOCC3)ccn2)CCCN1c1cccc(F)c1 [I-287] | > 200 µM |  |
| Fc1cccc(N2CCC[C@@H](Nc3cc([C@H]4CCCOC4)ccn3)C2)c1 [I-125] | > 200 µM |  |
| NC(=O)C[C@H](NC(=O)c1cn[nH]c1-c1cc(CC(=O)O)ccc1F)c1cccc(Cl)c1 [I-285] | 100 to 200 µM |  |
| C=CC(=O)N1CCC[C@@H](Nc2cc(N3CCOCC3)ccn2)C1 [I-449] | > 200 µM |  |

| Compound | Kd (read-out: DCAF1-3 SPR (KD)) | Kd (DCAF1-3 SPR (KD)) |
| --- | --- | --- |
| CCN1CCN(c2ccnc(N[C@@H]3CCCN(c4cccc(F)c4)C3)n2)CC1 [I-316] | > 200 µM |  |
| Fc1ccc(N2CCC[C@@H](Nc3cc(N4CCOCC4)ccn3)C2)cc1F [I-74] | 10 to 100 µM |  |
| CCCCCCC[C@H]1CCCN(c2ccnc(N3CC[C@@H]4[C@H]3CCCN4c3cccc(F)c3)c2)C1 [I-727] | > 200 µM |  |
| Cc1n[nH]c(C(F)(F)F)c1C(=O)N[C@@H](CC(N)=O)c1ccccc1 [I-837] | > 200 µM |  |
| NC(=O)c1cccc(N2CCC[C@@H](Nc3cc(N4CCOCC4)ccn3)C2)c1 [I-775] | > 200 µM |  |
| Fc1cccc(N2CCC[C@]3(CCc4cnc(N5CCOCC5)cc4N3)C2)c1 [I-214] | > 200 µM |  |
| Cc1cccc(N2CCC[C@@H]3[C@H]2CCN3c2cc(N3CC4CC(C4)C3)ccn2)c1 [I-706] | < 10 µM |  |
| C[C@H]1CCCCN1c1ccnc2c1CCN2C1CCCN(c2cccc(F)c2)C1 (stereo partly shown) [I-788] | < 10 µM |  |
| Cc1ccccc1-c1[nH]ncc1C(=O)N[C@@H](CC(N)=O)c1cccc(Cl)c1 [I-209] | > 200 µM |  |
| Cc1cccc(F)c1-c1[nH]ncc1C(=O)N[C@H](CC(N)=O)c1cc(Cl)cc(Cl)c1 [I-735] | 100 to 200 µM |  |
| COCCOCC[C@@H]1CCCN(c2ccnc(N3CC[C@H]4[C@@H]3CCCN4c3cccc(F)c3)c2)C1 [I-714] | 10 to 100 µM |  |
| O=C1Nc2cnc(N3CCCCC3)cc2NC12CCCN(c1cccc(F)c1)C2 (stereo not shown) [I-992] | 10 to 100 µM |  |
| C=CC(=O)N1CC(N(C)c2ccnc(N[C@@H]3CCCN(c4cccc(F)c4)C3)c2)C1 [I-457] | 10 to 100 µM |  |
| Fc1cccc(N2CCC[C@@H](Nc3cc(N4CCOCC4)ccn3)C2)c1 [I-29, (R)—N—(I-(3-fluorophenyl)piperidin-3-yl)-4-morpholinopyridin-2-amine] |  | 10 to 100 µM |
| C=CC(=O)NCN1CCN(c2ccnc(N[C@@H]3CCCN(c4cccc(F)c4)C3)c2)CC1 [I-466] | 10 to 100 µM |  |
| NC(=O)C[C@H](NC(=O)c1c[nH]nc1-c1cccc2nc[nH]c12)c1cccc(Cl)c1 [I-355] | 10 to 100 µM |  |
| NC(=O)C[C@H](NC(=O)c1nc(N)sc1-c1ccccc1F)c1cccc(Cl)c1 [I-565] | 100 to 200 µM |  |
| Cc1n[nH]cc1C(=O)N[C@@H](CC(N)=O)c1cccc(Cl)c1 [I-107] | > 200 µM |  |

The next lines start with the values.

| Kd (read-out: DCAF1-3 SPR (KD)) | Kd (DCAF1-3 SPR (KD)) | Compound |
| --- | --- | --- |
| < 10 µM |  | CNC1CN(C(=O)C[C@H](NC(=O)c2cn[nH]c2-c2c(F)ccc(F)c2C)c2cccc(Cl)c2)C1 [I-880] |
| > 200 µM |  | NC(=O)C[C@H](NC(=O)c1cnc(N)cc1-c1ccccc1F)c1cccc(Cl)c1 [I-589] |
| > 200 µM |  | Fc1cccc(N2CCC[C@@H](Oc3cc(N4CCOCC4)ccn3)C2)c1 [I-81] |
| > 200 µM |  | c1ccc(Cc2ccc(N3CCC[C@@H](Nc4cc(N5CCOCC5)ccn4)C3)nc2)cc1 [I-435] |
| < 10 µM |  | NC(=O)C[C@H](NC(=O)c1c[nH]c(Nc2ccccc2)c1-c1c(F)cccc1F)c1cccc(Cl)c1 [I-629] |
| > 200 µM |  | Clc1cc(N2CCC[C@@H](Nc3cc(N4CCOCC4)ccn3)C2)nc(C2CC2)n1 [I-679] |
| 10 to 100 µM |  | c1cc(N2CCOCC2)cc(N[C@@H]2CCCN(c3ccnc(OC4CC4)c3)C2)n1 [I-687] |
| > 200 µM |  | FC[C@@]1(Nc2cc(N3CCOCC3)ccn2)CCCN(c2cccc(F)c2)C1 [I-277] |
| 10 to 100 µM |  | NC[C@H]1C[C@@H](Nc2cc(N3CCCCC3)ccn2)CN(c2cccc(F)c2)C1 [I-1041] |
| > 200 µM |  | Fc1cccc(N2CCC[C@@H](N(c3ccccc3)c3cc(N4CCOCC4)ccn3)C2)c1 [I-273] |
| > 200 µM |  | NC(=O)C[C@H](NC(=O)c1cn[nH]c1-c1ccccc1F)c1ccccn1 [I-340] |
| 100 to 200 µM |  | Oc1ccc(N2CCC[C@@H](Nc3cc(N4CCOCC4)ncn3)C2)cc1 [I-14] |
| > 200 µM |  | C[C@H](C(N)=O)[C@H](NC(=O)c1c[nH]nc1-c1ccccc1F)c1cccc(Cl)c1 [I-212] |
| < 10 µM |  | Cc1cc(Cl)cc([C@@H](CC(N)=O)NC(=O)c2cn[nH]c2-c2c(C)cccc2F)c1 [I-738] |
| 10 to 100 µM |  | N#Cc1cccc([C@H](CC(N)=O)NC(=O)c2c[nH]nc2-c2ccccc2F)c1 [I-117] |
| 100 to 200 µM |  | Fc1cccc(N2CCC[C@@H](Nc3nccc(N4CCCCC4)n3)C2)c1 [I-319] |
| 100 to 200 µM |  | c1ccc2cc(N3CCC[C@@H](Nc4nccc(N5CCOCC5)n4)C3)ncc2c1 [I-47] |
| > 200 µM |  | c1cncc(N2CCC[C@@H](Nc3cc(N4CCOCC4)ncn3)C2)c1 [I-12] |
| 10 to 100 µM |  | COCCOCC[C@@H]1CN(c2cc(N3CCCCC3)ccn2)[C@@H]2CCCN(c3cccc(F)c3)[C@H]12 [I-996] |
| < 10 µM |  | Cc1c(F)ccc(F)c1-c1c(C(=O)N[C@@H](CC(N)=O)c2cccc(Cl)c2)cn(C)c1C(=O)c1ccc(OCCOCCOCCOCCOCCOCCN)cc1 [I-1018] |
| < 10 µM |  | COCCC1C2CCC1CN(c1ccnc(N[C@@H]3CCCN(c4cccc(F)c4)C3)c1)C2 (stereo partly shown) [I-654] |
| > 200 µM |  | Oc1cnc(N[C@@H]2CCCN(c3cccc(F)c3)C2)cc1N1CCOCC1 [I-409] |
| 10 to 100 µM |  | NC(=O)CCc1ccc(N2CCC[C@@H](Nc3cc(N4CCOCC4)ccn3)C2)cc1 [I-869] |
| 10 to 100 µM |  | C=CC(=O)N(C)CCCN(C)c1ccnc(N[C@@H]2CCCN(c3cccc(F)c3)C2)c1 [I-462] |
